In patent US12528773B2, “Non-lysosomal glucosylceramidase inhibitors and uses thereof” (ALECTOS THERAPEUTICS INC., priority 2020, dated 2026):
One block for each compound: values may come before it.

Columns and labels:
Assay type in all cases: biochemical
[1] = tested on: rat intestinal alpha-glucosidases; assay: Inhibition of rat intestinal alpha-glucosidases (rat intestinal lysate, glucose detection); conditions: compound concentration 25 μM, sucrose as substrate
Outline: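 Rat intestinal acetone-powder lysate in citrate-phosphate pH 6.0 with 50 or 25 μM compound, 3.3% DMSO, 37 °C, 20 min. Sucrose reactions used 2.1 mg/mL lysate and 40 mM sucrose; maltose reactions 0.69 mg/mL lysate and 10 mM maltose. Glucose was detected by Amplex Red fluorescence at 10 min, or by hexokinase absorbance at 340 nm, relative to no-compound wells.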

GBA2 [2] = molecular target: T1, GBA2 (Homo sapiens (Human), UniProt Q9HCG7); assay: Binding specificity for GBA2 over other molecules, Ki or IC50 ratio
T1 sequence (Q9HCG7 whole entry): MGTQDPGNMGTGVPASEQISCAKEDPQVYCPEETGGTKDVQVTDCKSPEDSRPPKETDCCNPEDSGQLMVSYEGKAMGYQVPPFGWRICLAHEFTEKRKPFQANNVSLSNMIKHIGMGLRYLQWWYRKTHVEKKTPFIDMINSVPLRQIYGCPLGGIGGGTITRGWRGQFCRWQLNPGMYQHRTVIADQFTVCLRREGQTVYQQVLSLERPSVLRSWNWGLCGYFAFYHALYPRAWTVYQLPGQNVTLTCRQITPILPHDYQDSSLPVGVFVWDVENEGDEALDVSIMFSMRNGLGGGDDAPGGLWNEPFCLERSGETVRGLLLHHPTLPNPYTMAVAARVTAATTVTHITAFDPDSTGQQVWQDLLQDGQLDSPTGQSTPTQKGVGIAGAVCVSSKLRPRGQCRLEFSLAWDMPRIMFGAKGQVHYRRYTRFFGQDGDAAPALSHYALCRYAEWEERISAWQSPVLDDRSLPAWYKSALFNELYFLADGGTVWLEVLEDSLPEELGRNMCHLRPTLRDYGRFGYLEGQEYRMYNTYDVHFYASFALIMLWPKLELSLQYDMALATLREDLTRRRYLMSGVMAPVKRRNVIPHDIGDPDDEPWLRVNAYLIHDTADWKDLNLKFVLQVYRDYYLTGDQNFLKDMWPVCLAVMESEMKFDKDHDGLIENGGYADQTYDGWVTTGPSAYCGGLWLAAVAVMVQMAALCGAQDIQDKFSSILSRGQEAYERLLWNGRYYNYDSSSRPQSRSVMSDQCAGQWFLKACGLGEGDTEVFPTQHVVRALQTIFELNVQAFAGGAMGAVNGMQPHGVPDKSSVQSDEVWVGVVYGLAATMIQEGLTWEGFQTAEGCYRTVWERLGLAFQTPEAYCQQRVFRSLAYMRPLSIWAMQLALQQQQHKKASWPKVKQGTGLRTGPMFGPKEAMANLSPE
Source text: In some embodiments, one or more of the compounds according to the invention may specifically bind a GBA2. In alternative embodiments, one or more of the compounds according to the invention may specifically bind the active site of a GBA2. […] In alternative embodiments, one or more of the compounds according to the invention may specifically bind the human non-lysosomal glucosylceramidase (GBA2) over the human lysosomal glucosylceramidase (GCase) and/or the human cytosolic glucosylceramidase (GBA3). In alternative embodiments, one or more of the compounds according to the invention may specifically bind the human non-lysosomal glucosylceramidase (GBA2) over the human glucosylceramide synthase (GCS). In alternative embodiments, one or more of the compounds according to the invention may specifically bind the human non-lysosomal glucosylceramidase (GBA2) over an intestinal alpha-glucosidase, where the intestinal alpha-glucosidase may be a sucrase-isomaltase or a maltase-glucoamylase.

GBA2 [3] = molecular target: T1, GBA2; assay: Inhibition of GBA2 in cell lysate (4-methylumbelliferone glucopyranoside substrate); conditions: HEK293T-overexpressing GBA2 cellular homogenate, pH 5.5; read-out: GBA2 IC50;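 note: homogenate of stably transfected HEK293T cells pre-treated with a GCase inhibitor, test compound preincubated 5 min at 37 °C, substrate reaction 20 min at 37 °C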

- binding specificity, IC50(other molecule)/IC50(GBA2) or Ki ratio (GBA2 [2]): enhanced binding specificity
- IC50 (GBA2 [3]): < 100 nM
Compound: O[C@H]1[C@H](O)CN(C[C@@H]2CCCN(c3ncccc3C(F)(F)F)C2)C[C@@H]1O [Example 36, (3S,4S,5R)-1-(((S)-1-(3-(trifluoromethyl)pyridin-2-yl)piperidin-3-yl)methyl)piperidine-3,4,5-triol]
- rat α-glu. (% inhib.) [1]: 0%

- binding specificity, IC50(other molecule)/IC50(GBA2) or Ki ratio (GBA2 [2]): enhanced binding specificity
- IC50 (GBA2 [3]): < 100 nM
Compound: O[C@H]1[C@H](O)CN(C[C@@H]2CCCN(c3cnccc3C(F)(F)F)C2)C[C@@H]1O [Example 38, (3S,4S,5R)-1-(((S)-1-(4-(trifluoromethyl)pyridin-3-yl)piperidin-3-yl)methyl)piperidine-3,4,5-triol]
- rat α-glu. (% inhib.) [1]: 0%

- binding specificity, IC50(other molecule)/IC50(GBA2) or Ki ratio (GBA2 [2]): enhanced binding specificity
- IC50 (GBA2 [3]): < 100 nM
Compound: CC(C)(F)[C@H]1CC[C@@H](CN2C[C@@H](O)[C@H](O)[C@@H](O)C2)CC1 [Example 3, (3S,4R,5R)-1-(((1s,4S)-4-(2-fluoropropan-2-yl)cyclohexyl)methyl)piperidine-3,4,5-triol]
- rat α-glu. (% inhib.) [1]: 1%

- binding specificity, IC50(other molecule)/IC50(GBA2) or Ki ratio (GBA2 [2]): enhanced binding specificity
- IC50 (GBA2 [3]): < 100 nM
Compound: Cc1noc(C)c1-c1cc(F)c(CCN2C[C@@H](O)[C@H](O)[C@@H](O)C2)c(F)c1 [Example 14, (3S,4r,5R)-1-(4-(3,5-dimethylisoxazol-4-yl)-2,6-difluorophenethyl)piperidine-3,4,5-triol]
- rat α-glu. (% inhib.) [1]: 2%

- binding specificity, IC50(other molecule)/IC50(GBA2) or Ki ratio (GBA2 [2]): enhanced binding specificity
- IC50 (GBA2 [3]): < 100 nM
Compound: O[C@H]1[C@H](O)CN(C[C@H]2CCN(c3nc(C(F)(F)F)cs3)C2)C[C@@H]1O [Example 21, (3S,4R,5R)-1-(((R)-1-(4-(trifluoromethyl)thiazol-2-yl)pyrrolidin-3-yl)methyl)piperidine-3,4,5-triol]
- rat α-glu. (% inhib.) [1]: 6%

- binding specificity, IC50(other molecule)/IC50(GBA2) or Ki ratio (GBA2 [2]): enhanced binding specificity
- IC50 (GBA2 [3]): < 100 nM
Compound: O[C@H]1[C@H](O)CN(C[C@H]2CCCN(c3nc4ccccc4s3)C2)C[C@@H]1O [Example 34, (3S,4R,5R)-1-(((R)-1-(benzo[d]thiazol-2-yl)piperidin-3-yl)methyl)piperidine-3,4,5-triol]
- rat α-glu. (% inhib.) [1]: 2%

- binding specificity, IC50(other molecule)/IC50(GBA2) or Ki ratio (GBA2 [2]): enhanced binding specificity
- IC50 (GBA2 [3]): < 100 nM
Compound: O[C@H]1[C@H](O)CN(C[C@H]2CCCN(c3ncccc3C(F)(F)F)C2)C[C@@H]1O [Example 29, (3S,4R,5R)-1-(((R)-1-(3-(trifluoromethyl)pyridin-2-yl)piperidin-3-yl)methyl)piperidine-3,4,5-triol]
- rat α-glu. (% inhib.) [1]: 4%

Further lines, the compound ahead of its results:

Compound: O[C@H]1[C@H](O)CN(CCc2c(F)ccc(Cl)c2F)C[C@@H]1O [Example 7, (3S,4r,5R)-1-(3-chloro-2,6-difluorophenethyl)piperidine-3,4,5-triol]
- rat α-glu. (% inhib.) [1]: 0%
- binding specificity, IC50(other molecule)/IC50(GBA2) or Ki ratio (GBA2 [2]): enhanced binding specificity
- IC50 (GBA2 [3]): < 100 nM

Compound: O[C@H]1[C@H](O)CN(C[C@H]2CCCN(c3cccc(C(F)(F)F)n3)C2)C[C@@H]1O [Example 30, (3S,4R,5R)-1-(((R)-1-(6-(trifluoromethyl)pyridin-2-yl)piperidin-3-yl)methyl)piperidine-3,4,5-triol]
- rat α-glu. (% inhib.) [1]: 6%
- binding specificity, IC50(other molecule)/IC50(GBA2) or Ki ratio (GBA2 [2]): enhanced binding specificity
- IC50 (GBA2 [3]): < 100 nM

Compound: O[C@H]1[C@H](O)CN(C[C@H]2CCCN(c3cccc4scnc34)C2)C[C@@H]1O [Example 35, (3S,4R,5R)-1-(((R)-1-(benzo[d]thiazol-4-yl)piperidin-3-yl)methyl)piperidine-3,4,5-triol]
- rat α-glu. (% inhib.) [1]: 7%
- binding specificity, IC50(other molecule)/IC50(GBA2) or Ki ratio (GBA2 [2]): enhanced binding specificity
- IC50 (GBA2 [3]): < 100 nM

Compound: O[C@H]1[C@H](O)CN(C[C@H]2CC[C@H](C(F)(F)F)CC2)C[C@@H]1O [Example 1, (3S,4R,5R)-1-(((1r,4R)-4-(trifluoromethyl)cyclohexyl)methyl)piperidine-3,4,5-triol]
- rat α-glu. (% inhib.) [1]: 0%
- binding specificity, IC50(other molecule)/IC50(GBA2) or Ki ratio (GBA2 [2]): enhanced binding specificity
- IC50 (GBA2 [3]): < 100 nM

Compound: Cc1ccccc1N1CC[C@H](CN2C[C@@H](O)[C@H](O)[C@@H](O)C2)C1 [Example 18, (3S,4R,5R)-1-(((R)-1-(o-tolyl)pyrrolidin-3-yl)methyl)piperidine-3,4,5-triol]
- rat α-glu. (% inhib.) [1]: 0%
- binding specificity, IC50(other molecule)/IC50(GBA2) or Ki ratio (GBA2 [2]): enhanced binding specificity
- IC50 (GBA2 [3]): < 100 nM

Compound: O[C@H]1[C@H](O)CN(CCc2c(F)cc(OCC3CC3)cc2F)C[C@@H]1O [Example 9, (3S,4r,5R)-1-(4-(cyclopropylmethoxy)-2,6-difluorophenethyl)piperidine-3,4,5-triol]
- rat α-glu. (% inhib.) [1]: 0%
- binding specificity, IC50(other molecule)/IC50(GBA2) or Ki ratio (GBA2 [2]): enhanced binding specificity
- IC50 (GBA2 [3]): < 100 nM

Compound: O[C@H]1[C@H](O)CN(CCc2c(F)cc(N3CCCCC3)cc2F)C[C@@H]1O [Example 11, (3S,4r,5R)-1-(2,6-difluoro-4-(piperidin-1-yl)phenethyl)piperidine-3,4,5-triol]
- rat α-glu. (% inhib.) [1]: 10%
- binding specificity, IC50(other molecule)/IC50(GBA2) or Ki ratio (GBA2 [2]): enhanced binding specificity
- IC50 (GBA2 [3]): < 100 nM

Compound: O[C@H]1[C@H](O)CN(C[C@H]2CC[C@@H](C(F)(F)F)CC2)C[C@@H]1O [Example 2, (3S,4R,5R)-1-(((1s,4S)-4-(trifluoromethyl)cyclohexyl)methyl)piperidine-3,4,5-triol]
- rat α-glu. (% inhib.) [1]: 4%
- binding specificity, IC50(other molecule)/IC50(GBA2) or Ki ratio (GBA2 [2]): enhanced binding specificity
- IC50 (GBA2 [3]): < 100 nM

Compound: O[C@H]1[C@H](O)CN(C[C@H]2CCN(c3cnccc3C(F)(F)F)C2)C[C@@H]1O [Example 20, (3S,4R,5R)-1-(((R)-1-(4-(trifluoromethyl)pyridin-3-yl)pyrrolidin-3-yl)methyl)piperidine-3,4,5-triol]
- rat α-glu. (% inhib.) [1]: 4%
- binding specificity, IC50(other molecule)/IC50(GBA2) or Ki ratio (GBA2 [2]): enhanced binding specificity
- IC50 (GBA2 [3]): < 100 nM
